# Measured values published in patent US20240293404A1, “SALT AND CRYSTAL FORMS OF AN EPIDERMAL GROWTH FACTOR RECEPTOR INHIBITOR” (Blueprint Medicines Corporation, priority 2021, published 2024).
# Tests used:
# [1] = Dynamic Vapor Sorption (DVS); assay type: physicochemical; conditions: between 2 and 95% relative humidity at 25° C.
# Description: DVS was performed using a DVS Intrinsic 1. The sample (5-25 mg) was loaded into a sample pan, suspended from a microbalance and exposed to a humidified stream of nitrogen gas. The sample was held for a minimum of 5 min at each level and only progressed to the next humidity level if there was <0.002% change in weight between measurements (interval: 60 s) or 60 min had elapsed. The following program was used: • 1—Equilibration at 50% RH • 2—50% to 2%. (50%, 40%, 30%, 20%, 10%, and 2%) • 3—2% to 95% (2%, 10%, 20%, 30%, 40%, 50%, 60%, 70%, 80%, 90%, 95%) • 4—95% to 2% (95%, 80%, 70%, 60%, 50%, 40%, 30%, 20%, 10%, 2%) • 5—2% to 50% (2%, 10%, 20%, 30%, 40%, 50%)
# EGFR mutant NSCLC = conditions: NSCLC patients; cited from earlier work
smiles,measurement,setting,value
CO[C@@H]1CCN(c2nccc(Nc3cc4c(C(C)C)ccc(N5C[C@H](CS(C)(=O)=O)[C@H]5C)c4cn3)n2)C[C@@H]1F [1:0.5 Compound (I) Semi-Succinate],DVS mass change,[1],7.1 wt. %
CO[C@@H]1CCN(c2nccc(Nc3cc4c(C(C)C)ccc(N5C[C@H](CS(C)(=O)=O)[C@H]5C)c4cn3)n2)C[C@@H]1F [Compound (I) Freebase Form B],DVS mass change,[1],2.1 wt. %
C=CC(=O)Nc1cc(Nc2nccc(-c3cn(C)c4ccccc34)n2)c(OC)cc1N(C)CCN(C)C [osimertinib],time within which resistance mediated by exon 20 C797 mutation (often C797S) usually develops,EGFR mutant NSCLC,≤ 10 months
